Consider six molecules from patent US20080191164A1, “Method For the Treatment of a Material Other Than the Human Body” (priority 2005, published 2008).

The conditions of series [1]: background statement; cited from earlier work.
Series [2] in a line: Flammability / flashpoint of the compositions. The series is classed as physicochemical. Further details: key to FLA = flammability: − = no; +/° C. = yes/flashpoint.
Series [3] is described as follows: Volatility / aptitude for drying. Further details: key: 0 = low; + = moderate; ++ = high. The series is classed as physicochemical.
Series [4] can be described thus: Rinsability with water. Further details: key: 0 = poor; + = good; ++ = excellent. The class given is physicochemical.
Series [5] concerns aquatic organisms, such as bacteria, freshwater algae, daphnia and freshwater fish. Nature of the series: Toxicity for aquatic organisms.
The nature of series [6]: Ready biodegradability, OECD No. 301 A (DOC Die-away Test). Particulars: at 28 days.
A short description of series [7]: Biodegradability (general properties table).
Series [8] in a line: Rate of evaporation with respect to n-butyl acetate. The class given is physicochemical. Particulars: 20° C.
The conditions of series [9]: advantages hitherto described; cited from earlier work.
Series [10] concerns man. As to conditions: cited from earlier work; for toxicity for man: compulsory labelings T, Xn, R40, R45 and/or R65.
Series [11] can be described thus: Risks of harmfulness, protection of the aquatic environment/bioaccumulation. Further details: key: − = harmfulness demonstrated; + = slight risk; ++ = very slight risks. The source says:
For each of Compositions A to E, the characteristics of odor (“ODOR”), of stability at alkaline pH, i.e. at a pH of 9 (“STAB.”) and of risks of harmfulness in terms of protection of the aquatic environment/bioaccumulation (“BIO.”) are taken up in the table below according to the following notation: […]

The conditions of series [12]: compulsory labelings; cited from earlier work.

Each structure is given as a SMILES string.

Regarding `CCOC(=O)C(C)O` (stereo not shown) [Composition 4, ethyl lactate], in [1], the flashpoint is 46 °C. Moreover, in series [2], the “FLA = flammability” value is recorded as “+” and the “FLA: flashpoint” value amounted to 46 °C. Also, the “VOL = volatility/aptitude for drying” value in [3] is recorded as “+”. In [4], the “RIN = rinsability with water” value was “+”.
For the molecule `CO[C@H]1CO[C@H]2[C@@H]1OC[C@H]2OC` [Composition 5, dimethyl isosorbide], in series [5], the “toxicity for aquatic organisms” value is listed as “absence of toxicity”. Moreover, in series [6], the “ready biodegradability (OECD No. 301 A)” value is given as approximately 25%. In [2], the “FLA = flammability” value was “+” and the “FLA: flashpoint” value is 120 °C. For the same molecule, the “VOL = volatility/aptitude for drying” value in [3] is 0. For the same molecule, the “BIO = biodegradability” value in series [7] is “+”. In addition, the “rate of evaporation with respect to n-butyl acetate” value in series [8] is given as “less than 0.005”. The miscibility with water result in series [9] is given as “in all proportions”. For the same molecule, the “RIN = rinsability with water” value in series [4] was “++”. In series [10] (advantages hitherto described), the “irritant nature and toxicity to man” value is “absence of irritant nature and of toxicity to man”. In series [11], the “BIO. (risks of harmfulness, aquatic environment/bioaccumulation)” value is on record as “++”.
Take `ClC=C(Cl)Cl` [Composition 1, trichloroethylene]: the “FLA = flammability” value in series [2] is on record as “−”. Besides, the “VOL = volatility/aptitude for drying” value in series [3] is “++”. Moreover, in [12], the “toxicity for the environment” value is “compulsory labelings R51/R53”. Further, in [7], the “BIO = biodegradability” value is reported as “−”. Further, the “RIN = rinsability with water” value in series [4] stood at 0. For the same molecule, the toxicity for man entry in series [10] was “a certain toxicity for man”.
As for `C=C(C)[C@H]1CC=C(C)CC1` [d-limonene], the flashpoint in series [1] was 48 °C.
Turning to `ClCCl` [Composition 2, dichloromethane], the “FLA = flammability” value in series [2] is “−”. Also, the “VOL = volatility/aptitude for drying” value in series [3] is listed as “++”. Further, the “toxicity for the environment” value in series [12] was “compulsory labelings R51/R53”. Further, the “BIO = biodegradability” value in [7] was “−”. In series [4], the “RIN = rinsability with water” value worked out at 0. Further, the toxicity for man entry in series [10] was “a certain toxicity for man”.
Regarding `C=C(C)[C@H]1CC=C(C)CC1` [Composition 3, dipentene], in [2], the “FLA = flammability” value is recorded as “+” and the “FLA: flashpoint” value worked out at 48 °C. Besides, the “VOL = volatility/aptitude for drying” value in series [3] is “++”. In addition, in [7], the “BIO = biodegradability” value is on record as “+”. Also, the “RIN = rinsability with water” value in series [4] came out at 0.
